This passage reports inhibition results from US11773099B2, “Compounds and their methods of use” (Praxis Precision Medicines, Inc., priority 2019, dated 2023).

For this assay, the target named is T1, human Nav1.6 (hNav1.6) (Homo sapiens, UniProt Q9UQD0).
T1 construct: expressed in transfected cells; host or cells: HEK-293 (G418 selection)
Nature of the assay: Modulation of late sodium current (INaL), PatchXpress electrophysiology. To be noted: HEK293; compound at 1 μM; HEK-293 cells expressing recombinant hNav1.6; late current evoked by 300 nM ATX-II; read-out: INaL v1.6 (1 μM, % Inhibition). Type of assay: cell-based. As for the experimental part: Functional characterization of exemplary compounds to modulate INaL expressed by the Nav1.6 voltage-gated sodium channel was accomplished using the PatchXpress™ high throughput electrophysiology platform (Molecular Devices, Sunnyvale, Calif.). HEK-293 cells expressing recombinant, human Nav1.6 (hNav1.6) were grown in DMEM/high-glucose Dulbecco's modified, 10% FBS, 2 mM sodium pyruvate, 10 mM HEPES and 400 μg/mL G418. Cells were grown to 50%-80% confluency prior to harvesting. Trypsinized cells were washed, allowed to recover for 1 hour and then resuspended in extracellular recording solution at a concentration of 1×10^6 cells/ml. The onboard liquid handling facility of the PatchXpress was used for dispensing cells and applying test compounds. Nav late currents were evoked by the application of 300 nM ATX-II. INaL was evoked by depolarizing pulses to 0 mV for 200 ms from a non-inactivating holding potential (e.g., −120 mV) at a frequency of 0.1 Hz. INaL amplitude and stability were determined by analyzing the mean current amplitude over the final 20 ms of the test pulse. Following steady state block with exemplary compounds (e.g., as described herein), a Na^+ free solution containing an impermeant cation (e.g., Choline or NDMG) was added to confirm the identify of the sodium current. Percent steady-state inhibition of INaL was calculated as: [(INaL_compound)/(INaL_control)]*100, where INaL_compound and INaL_control represent INaL recorded in the presence or absence of compound, respectively.
Results from this assay relating to percent inhibition of INaL at hNav1.6 (measured using procedure similar to described above but using HEK-293 cells expressing recombinant, human Nav1.6 (hNav1.6) at 1 μM are summarized in Table 1 below. In this table, “A” indicates inhibition of less than 30%; “B” indicates inhibition of between about 30% to about 70%; and “C” indicates inhibition of greater than 70%.

T1 sequence (Q9UQD0 whole entry): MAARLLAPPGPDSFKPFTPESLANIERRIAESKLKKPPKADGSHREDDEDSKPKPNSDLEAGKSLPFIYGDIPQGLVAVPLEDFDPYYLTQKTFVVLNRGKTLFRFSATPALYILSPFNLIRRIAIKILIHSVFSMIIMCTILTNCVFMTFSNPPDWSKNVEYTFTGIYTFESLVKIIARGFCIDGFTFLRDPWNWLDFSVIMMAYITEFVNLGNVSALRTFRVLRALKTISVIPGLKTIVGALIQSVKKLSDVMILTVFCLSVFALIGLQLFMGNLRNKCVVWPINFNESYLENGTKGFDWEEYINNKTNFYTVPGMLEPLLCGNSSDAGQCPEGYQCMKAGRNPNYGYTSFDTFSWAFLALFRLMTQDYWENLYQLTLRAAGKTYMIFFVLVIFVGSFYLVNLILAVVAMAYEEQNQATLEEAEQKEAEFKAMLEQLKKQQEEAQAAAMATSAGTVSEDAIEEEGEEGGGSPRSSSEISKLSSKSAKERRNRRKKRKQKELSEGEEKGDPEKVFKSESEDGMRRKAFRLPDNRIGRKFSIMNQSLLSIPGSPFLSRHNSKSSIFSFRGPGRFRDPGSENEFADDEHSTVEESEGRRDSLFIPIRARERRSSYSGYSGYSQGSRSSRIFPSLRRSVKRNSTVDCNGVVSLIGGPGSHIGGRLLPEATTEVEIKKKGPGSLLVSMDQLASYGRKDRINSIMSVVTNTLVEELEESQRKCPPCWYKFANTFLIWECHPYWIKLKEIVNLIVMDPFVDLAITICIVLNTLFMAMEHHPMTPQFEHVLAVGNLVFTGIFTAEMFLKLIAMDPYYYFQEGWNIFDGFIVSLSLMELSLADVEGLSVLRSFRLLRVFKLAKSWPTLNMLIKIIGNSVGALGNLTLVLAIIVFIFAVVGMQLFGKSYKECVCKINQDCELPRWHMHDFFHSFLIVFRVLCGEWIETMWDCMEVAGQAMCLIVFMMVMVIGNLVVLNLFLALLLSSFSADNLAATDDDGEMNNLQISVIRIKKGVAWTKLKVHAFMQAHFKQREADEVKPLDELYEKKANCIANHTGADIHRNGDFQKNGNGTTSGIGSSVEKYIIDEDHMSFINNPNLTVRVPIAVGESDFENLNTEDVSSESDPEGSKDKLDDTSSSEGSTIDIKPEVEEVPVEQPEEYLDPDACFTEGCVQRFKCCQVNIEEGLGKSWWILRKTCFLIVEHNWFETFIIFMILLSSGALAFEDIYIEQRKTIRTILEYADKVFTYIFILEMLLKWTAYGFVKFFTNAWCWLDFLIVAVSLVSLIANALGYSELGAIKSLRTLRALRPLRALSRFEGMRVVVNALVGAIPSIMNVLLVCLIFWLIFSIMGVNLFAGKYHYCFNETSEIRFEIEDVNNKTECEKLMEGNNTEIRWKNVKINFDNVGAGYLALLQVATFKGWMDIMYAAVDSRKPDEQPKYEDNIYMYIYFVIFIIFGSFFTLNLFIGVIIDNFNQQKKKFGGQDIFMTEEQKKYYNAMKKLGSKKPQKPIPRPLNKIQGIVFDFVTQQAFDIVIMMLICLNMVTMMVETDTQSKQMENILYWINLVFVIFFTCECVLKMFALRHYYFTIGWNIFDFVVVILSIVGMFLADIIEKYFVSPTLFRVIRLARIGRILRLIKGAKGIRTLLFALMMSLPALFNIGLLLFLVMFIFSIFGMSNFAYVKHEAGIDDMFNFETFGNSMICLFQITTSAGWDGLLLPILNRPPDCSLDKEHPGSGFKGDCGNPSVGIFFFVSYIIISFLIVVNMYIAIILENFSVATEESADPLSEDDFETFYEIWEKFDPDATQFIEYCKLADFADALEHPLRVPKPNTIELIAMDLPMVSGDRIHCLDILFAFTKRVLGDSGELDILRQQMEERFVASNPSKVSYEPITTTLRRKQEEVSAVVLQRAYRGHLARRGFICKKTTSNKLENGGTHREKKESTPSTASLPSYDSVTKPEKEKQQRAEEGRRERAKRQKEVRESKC

In the case of `COCc1ncn2cnc(-c3ccc(OC(F)(F)F)cc3)cc12` [Compound 26], the inhibition at 1 µM is 30 to 70%.
Take `COCc1ncn2cnc(-c3cnc(O[C@H](C)C(F)(F)F)c(F)c3)cc12` [Compound 25]: the inhibition at 1 µM was > 70%.
As for `C[C@@H](Oc1ncc(-c2cc3cncn3cn2)cc1F)C(F)(F)F` [Compound 12, 7-[5-fluoro-6-[(1R)-2,2,2-trifluoro-1-methyl-ethoxy]-3-pyridyl]imidazo[1,5-c]pyrimidine], the inhibition at 1 µM is < 30%.
With `Fc1cc(-c2cc3cncn3cn2)cnc1OCC(F)(F)F` [Compound 10, 7-[5-fluoro-6-(2,2,2-trifluoroethoxy)-3-pyridyl]imidazo[1,5-c]pyrimidine], the inhibition at 1 µM was < 30%.
Turning to `FC(F)(F)Oc1ccc(-c2ccn3cnc(C(F)(F)F)c3c2)cc1` [Compound 2], the inhibition at 1 µM is < 30%.
The value for `Fc1cc(-c2cc3c(C(F)(F)F)ncn3cn2)cnc1OCC(F)(F)F` [Compound 16] was < 30%; that for `FC(F)(F)Oc1ccc(-c2cc3c(C(F)(F)F)ncn3cn2)cc1` [Compound 8] was > 70%.
On to `CC(C)(Oc1ncc(-c2cc3c(C(F)F)ncn3cn2)cc1F)C(F)(F)F` [Compound 21], for which the inhibition at 1 µM lay in the range of 30 to 70%.
`COCc1ncn2cnc(-c3cnc(O[C@@H](C)C(F)(F)F)c(F)c3)cc12` [Compound 24]: the inhibition at 1 µM is < 30%.
Turning to `Fc1cc(-c2cc3c(C(F)F)ncn3cn2)cnc1OCC(F)(F)F` [Compound 22], the inhibition at 1 µM was < 30%.
With `Cc1cc(OC(F)(F)F)ccc1-c1cc2cncn2cn1` [Compound 9, 7-[2-methyl-4-(trifluoromethoxy)phenyl]imidazo[1,5-c]pyrimidine], the inhibition at 1 µM is < 30%.
As to `C[C@@H](Oc1ncc(-c2cc3c(C(F)(F)F)ncn3cn2)cc1F)C(F)(F)F` [Compound 15], the inhibition at 1 µM is 30 to 70%.
As for `C[C@@H](Oc1ncc(-c2cc3c(C(F)F)ncn3cn2)cc1F)C(F)(F)F` [Compound 19], the inhibition at 1 µM was < 30%.
For `Cc1cc(OC(F)(F)F)ccc1-c1cnn2cnc(C(F)(F)F)c2c1` [Compound 6], the inhibition at 1 µM was < 30%.
As to `COCc1ncn2cnc(-c3cnc(OC(C)(C)C(F)(F)F)c(F)c3)cc12` [Compound 27], the inhibition at 1 µM is < 30%.
Take `Cc1cc(OC(F)(F)F)ccc1-c1cc2c(C(F)(F)F)ncn2cn1` [Compound 14]: the inhibition at 1 µM is > 70%.
Regarding `C[C@H](Oc1ncc(-c2cc3cncn3cn2)cc1F)C(F)(F)F` [Compound 11, 7-[5-fluoro-6-[(1S)-2,2,2-trifluoro-1-methyl-ethoxy]-3-pyridyl]imidazo[1,5-c]pyrimidine], the inhibition at 1 µM lay in the range of 30 to 70%.
Turning to `CC(C)(Oc1ncc(-c2cc3cncn3cn2)cc1F)C(F)(F)F` [Compound 13, 7-[5-fluoro-6-(2,2,2-trifluoro-1,1-dimethyl-ethoxy)-3-pyridyl]imidazo[1,5-c]pyrimidine], the inhibition at 1 µM fell in the range of 30 to 70%.
`FC(F)(F)Oc1ccc(-c2ccn3cncc3c2)cc1` [Compound 1]: the inhibition at 1 µM is < 30%.
As for `Cc1cc(OC(F)(F)F)ccc1-c1cnn2cncc2c1` [Compound 5, 3-[2-methyl-4-(trifluoromethoxy)phenyl]imidazo[1,5-b]pyridazine], the inhibition at 1 µM is < 30%.
To `C[C@H](Oc1ncc(-c2cc3c(C(F)F)ncn3cn2)cc1F)C(F)(F)F` [Compound 20] belongs < 30%; to `FC(F)(F)Oc1ccc(-c2cc3cncn3cn2)cc1` [Compound 7, 7-[4-(trifluoromethoxy)phenyl]imidazo[1,5-c]pyrimidine], < 30%; to `C[C@H](Oc1ncc(-c2cc3c(C(F)(F)F)ncn3cn2)cc1F)C(F)(F)F` [Compound 18], 30 to 70%.
Turning to `FC(F)(F)Oc1ccc(-c2ccn3cnc(C(F)(F)F)c3n2)cc1` [Compound 4], the inhibition at 1 µM lay within 30 to 70%.
`Cc1cc(OC(F)(F)F)ccc1-c1cc2c(C(F)F)ncn2cn1` [Compound 23]: the inhibition at 1 µM was < 30%.
On to `CC(C)(Oc1ncc(-c2cc3c(C(F)(F)F)ncn3cn2)cc1F)C(F)(F)F` [Compound 17], for which the inhibition at 1 µM was in the range of 30 to 70%.

In general, inhibition refers to the drop in the measured response relative to a control, in per cent.
